Data published in patent publication US12102648B2, “Orally-bioavailable nucleoside analogs” (priority 2021, dated 2024).
Like-named read-outs stand apart in the source and are kept apart here.

Assay: in vitro
Type: in vitro ADME
Conditions: human
How it was run: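 Caco-2 monolayers cultured 19 days on inserts (TEER >600 […]); bidirectional A-to-B and B-to-A transport at 37° C over 90 min, samples quantified by LC/MS/MS. Papp, efflux ratio and recovery calculated; ER >2 flags potential efflux substrates.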

[1] = Caco-2 monolayer, apical to basolateral, 90-minute incubation, read-out: Papp, A-B
[2] = Caco-2 monolayer, basolateral to apical, 90-minute incubation, read-out: Papp, B-A
[3] = Caco-2 monolayer, ER>2 indicates potential efflux transporter substrate, read-out: ER (efflux ratio)

Compound	Papp A→B at 90 min (Caco-2) [×10⁻⁶ cm/s]	Papp B→A at 90 min (Caco-2) [×10⁻⁶ cm/s]	efflux ratio at 90 min (Caco-2)	Papp A→B at 90 min [1] [×10⁻⁶ cm/s]	Papp B→A at 90 min [2] [×10⁻⁶ cm/s]	efflux ratio at 90 min [3]
CC(=O)O[C@H]1[C@@H](O)[C@](C#N)(c2ccc3c(N)ncnn23)O[C@@H]1COC(=O)CC1CCCCC1 [Compound 29, ((2R,3S,4R,5R)-3-acetoxy-5-(4-aminopyrrolo[2,1-f][1,2,4]triazin-7-yl)-5-cyano-4-hydroxytetrahydrofuran-2-yl)methyl 2-cyclohexylacetate]	2	2.1	1.1	–	–	–
CCC(=O)O[C@H]1[C@@H](O)[C@](C#N)(c2ccc3c(N)ncnn23)O[C@@H]1COC(=O)Cc1ccccc1 [Compound 47, (2R,3S,4R,5R)-5-(4-aminopyrrolo[2,1-f][1,2,4]triazin-7-yl)-5-cyano-4-hydroxy-2-((2-phenylacetoxy)methyl)tetrahydrofuran-3-yl propionate]	–	–	–	2	5.1	2.5
CCCCCOC(=O)Nc1ncnn2c([C@]3(C#N)O[C@H](COC(=O)CC)[C@@H](O)[C@H]3O)ccc12 [Compound 91, ((2R,3S,4R,5R)-5-cyano-3,4-dihydroxy-5-(4-(((pentyloxy)carbonyl)amino)pyrrolo[2,1-f][1,2,4]triazin-7-yl)tetrahydrofuran-2-yl)methyl propionate]	–	–	–	1.9	4.1	2.1
CC(=O)O[C@@H]1[C@H](OC(=O)[C@@H](N)C(C)C)[C@@H](COC(=O)Cc2ccccc2)O[C@@]1(C#N)c1ccc2c(N)ncnn12 [Compound 343, (2R,3R,4R,5R)-4-acetoxy-5-(4-aminopyrrolo[2,1-f][1,2,4]triazin-7-yl)-5-cyano-2-((2-phenylacetoxy)methyl)tetrahydrofuran-3-yl L-valinate]	–	–	–	1.2	6.5	5.6
CCC(=O)OC[C@H]1O[C@@](C#N)(c2ccc3c(N)ncnn23)[C@H](O)[C@@H]1OC(=O)CC [Compound 71]	–	–	–	0.94	2.3	2.4
CC(C)C(=O)OC[C@H]1O[C@@](C#N)(c2ccc3c(N)ncnn23)[C@H](O)[C@@H]1O [Compound 14, ((2R,3S,4R,5R)-5-(4-aminopyrrolo[2,1-f][1,2,4]triazin-7-yl)-5-cyano-3,4-dihydroxytetrahydrofuran-2-yl)methyl isobutyrate]	2.3	2.2	1	–	–	–
CC(C)[C@H](N)C(=O)Nc1ncnn2c([C@]3(C#N)O[C@H](CO)[C@@H](O)[C@H]3O)ccc12 [Compound 83, (2S)-2-amino-N-{7-[(2R,3R,4S,5R)-2-cyano-3,4-dihydroxy-5-(hydroxymethyl)oxolan-2-yl]pyrrolo[2,1-f][1,2,4]triazin-4-yl}-3-methylbutanamide]	0.07	0.2	3	–	–	–
CC(C)CC(=O)OC[C@H]1O[C@@](C#N)(c2ccc3c(N)ncnn23)[C@H](O)[C@@H]1OC(=O)CC(C)C [Compound 17, (2R,3S,4R,5R)-5-(4-aminopyrrolo[2,1-f][1,2,4]triazin-7-yl)-5-cyano-4-hydroxy-2-(((3-methylbutanoyl)oxy)methyl)tetrahydro furan-3-yl 3-methylbutanoate]	15	21	1.4	–	–	–
CCCCCOC(=O)Nc1ncnn2c([C@]3(C#N)O[C@H](COC(=O)CC(C)C)[C@@H](O)[C@H]3O)ccc12 [Compound 93, ((2R,3S,4R,5R)-5-cyano-3,4-dihydroxy-5-(4-(((pentyloxy)carbonyl)amino)pyrrolo[2,1-f][1,2,4]triazin-7-yl)tetrahydrofuran-2-yl)methyl 3-methylbutanoate]	2.8	1.5	0.54	–	–	–
CC(=O)OC[C@H]1O[C@@](C#N)(c2ccc3c(N)ncnn23)[C@H](O)[C@@H]1O [Compound 13, ((2R,3S,4R,5R)-5-(4-aminopyrrolo[2,1-f][1,2,4]triazin-7-yl)-5-cyano-3,4-dihydroxytetrahydrofuran-2-yl)methyl acetate]	0.2	0.6	2.7	–	–	–
N#C[C@@]1(c2ccc3c(N)ncnn23)O[C@H](COC(=O)Cc2ccccc2)[C@@H](O)[C@H]1O [Compound 12, ((2R,3S,4R,5R)-5-(4-aminopyrrolo[2,1-f][1,2,4]triazin-7-yl)-5-cyano-3,4-dihydroxytetrahydrofuran-2-yl)methyl 2-phenylacetate]	–	–	–	3	8.9	3
CC(C)CC(=O)OC[C@H]1O[C@@](C#N)(c2ccc3c(N)ncnn23)[C@H](O)[C@@H]1OC(=O)Cc1ccccc1 [Compound 20, ((2R,3S,4R,5R)-5-(4-aminopyrrolo[2,1-f][1,2,4]triazin-7-yl)-5-cyano-4-hydroxy-3-(2-phenylacetoxy)tetrahydrofuran-2-yl)methyl 3-methylbutanoate]	–	–	–	10	9.8	1
C[C@@H](C(=O)OC[C@H]1O[C@@](C#N)(c2ccc3c(N)ncnn23)[C@H](O)[C@@H]1O)C1CCCCC1 [Compound 275, ((2R,3S,4R,5R)-5-(4-aminopyrrolo[2,1-f][1,2,4]triazin-7-yl)-5-cyano-3,4-dihydroxytetrahydrofuran-2-yl)methyl (R)-2-cyclohexylpropanoate]	11	16	1.6	–	–	–
CC(C)[C@H](N)C(=O)OC[C@H]1O[C@@](C#N)(c2ccc3c(NC(=O)c4ccccc4)ncnn23)[C@H](O)[C@@H]1O [Compound 102, ((2R,3S,4R,5R)-5-(4-benzamidopyrrolo[2,1-f][1,2,4]triazin-7-yl)-5-cyano-3,4-dihydroxytetrahydrofuran-2-yl)methyl L-valinate]	0.02	6.7	280	–	–	–
CC(=O)Nc1ncnn2c([C@]3(C#N)O[C@H](COC(=O)[C@@H](N)C(C)(C)C)[C@@H](OC(=O)CC4CCCCC4)[C@H]3O)ccc12 [Compound 373, ((2R,3S,4R,5R)-5-(4-acetamidopyrrolo[2,1-f][1,2,4]triazin-7-yl)-5-cyano-3-(2-cyclohexylacetoxy)-4-hydroxytetrahydrofuran-2-yl)methyl (S)-2-amino-3,3-dimethylbutanoate]	24	29	1.2	–	–	–
CCC(=O)OC[C@H]1O[C@@](C#N)(c2ccc3c(NC(=O)c4ccccc4)ncnn23)[C@H](O)[C@@H]1O [Compound 107, ((2R,3S,4R,5R)-5-(4-benzamidopyrrolo[2,1-f][1,2,4]triazin-7-yl)-5-cyano-3,4-dihydroxytetrahydrofuran-2-yl)methyl propionate]	–	–	–	2.1	7.5	3.6
CNc1nc(NC(=O)CC2CCCCC2)nc2c1ncn2[C@@H]1O[C@H](COC(=O)CC2CCCCC2)[C@@H](O)[C@@]1(C)F [Compound 292, ((2R,3R,4R,5R)-5-(2-(2-cyclohexylacetamido)-6-(methylamino)-9H-purin-9-yl)-4-fluoro-3-hydroxy-4-methyltetrahydrofuran-2-yl)methyl 2-cyclohexylacetate]	2	1	0.5	–	–	–
N#C[C@@]1(c2ccc3c(NC(=O)[C@@H](N)Cc4ccc(F)cc4)ncnn23)O[C@H](COC(=O)CC2(N)CCCCC2)[C@@H](O)[C@H]1O [Compound 352, ((2R,3S,4R,5R)-5-(4-((S)-2-amino-3-(4-fluorophenyl)propanamido)pyrrolo[2,1-f][1,2,4]triazin-7-yl)-5-cyano-3,4-dihydroxytetrahydrofuran-2-yl)methyl 2-(1-aminocyclohexyl)acetate]	0.25	1.4	5.7	–	–	–
CC(C)(C)[C@H](N)C(=O)OC[C@H]1O[C@@](C#N)(c2ccc3c(N)ncnn23)[C@H](O)[C@@H]1O [Compound 410, ((2R,3S,4R,5R)-5-(4-aminopyrrolo[2,1-f][1,2,4]triazin-7-yl)-5-cyano-3,4-dihydroxytetrahydrofuran-2-yl)methyl (S)-2-amino-3,3-dimethylbutanoate]	0.47	1.49	3.2	–	–	–
N#C[C@@]1(c2ccc3c(NC(=O)[C@@H](N)Cc4ccc(F)cc4)ncnn23)O[C@H](CO)[C@@H](OC(=O)CC2(N)CCCCC2)[C@H]1O [Compound 345, (2R,3S,4R,5R)-5-(4-((S)-2-amino-3-(4-fluorophenyl)propanamido)pyrrolo[2,1-f][1,2,4]triazin-7-yl)-5-cyano-4-hydroxy-2-(hydroxymethyl)tetrahydrofuran-3-yl 2-(1-aminocyclohexyl)acetate]	0.09	3.9	43	–	–	–
CC(C)[C@H](N)C(=O)Nc1ncnn2c([C@]3(C#N)O[C@H](CO)[C@@H](OC(=O)Cc4ccccc4)[C@H]3O)ccc12 [Compound 144, (2R,3S,4R,5R)-5-(4-((S)-2-amino-3-methylbutanamido)pyrrolo[2,1-f][1,2,4]triazin-7-yl)-5-cyano-4-hydroxy-2-(hydroxymethyl)tetrahydrofuran-3-yl 2-phenylacetate]	–	–	–	0.03	1.8	53
N#C[C@@]1(c2ccc3c(N)ncnn23)O[C@H](COC(=O)CC2CCCCC2)[C@@H](O)[C@H]1O [Compound 10, ((2R,3S,4R,5R)-5-(4-aminopyrrolo[2,1-f][1,2,4]triazin-7-yl)-5-cyano-3,4-dihydroxytetrahydrofuran-2-yl)methyl 2-cyclohexylacetate]	3	4.7	1.6	–	–	–
